The results in this text go back to ChEMBL document CHEMBL1123144, “Studies on 4(1H)-quinazolinones. 5. Synthesis and antiinflammatory activity of 4(1H)-quinazolinone derivatives” (J Med Chem, 1985).

Data set [1] relates to Rattus norvegicus. The data set is described as follows: Percent inhibition against carrageenan-induced rat paw edema at 50 mg/kg dose administered perorally; 0-10%. The note with it: route oral. The data set is classed as functional.
Data set [2] has as its system Rattus norvegicus. Put plainly: Percent inhibition against carrageenan-induced rat paw edema at 50 mg/kg dose administered perorally; 41-50%. In kind it is functional. The note with it: route oral.
Data set [3] relates to Rattus norvegicus. Put plainly: Analgesic activity by oral administration route. The data set is classed as functional.
Data set [4] has as its system Rattus norvegicus. Put plainly: Anti-inflammatory activity following oral administration. The data set is classed as functional.
Data set [5] relates to Rattus norvegicus. The data set is described as follows: Percent inhibition against carrageenan-induced rat paw edema at 50 mg/kg dose administered perorally. The data set is classed as functional. As to conditions: route oral. (In general: Carrageenan injected into the paw causes an acute inflammation.)
For data set [6], the system named is Rattus norvegicus. Put plainly: Percent inhibition against carrageenan-induced rat paw edema at 50 mg/kg dose administered perorally; 31-40%. The data set is classed as functional. As to conditions: route oral.
Data set [7] deals with Rattus norvegicus. Put plainly: Percent inhibition against carrageenan-induced rat paw edema at 50 mg/kg dose administered perorally; 21-30%. The data set is classed as functional. The note with it: route oral.
The test system of data set [8] is Rattus norvegicus. The data set is described as follows: Percent inhibition against carrageenan-induced rat paw edema at 50 mg/kg dose administered perorally; 11-20%. The data set is classed as functional. The note with it: route oral.
Data set [9] deals with Mus musculus. Put plainly: Number of mice bearing ulcer at dose 48 mg/kg out of 5 mices tested. In kind it is functional.
Data set [10] deals with Mus musculus. The data set is described as follows: Ulcer index by number of mice bearing ulcer at dose 48 mg/kg out of 5 mice tested. The data set is classed as functional.
The subject of data set [11] is Mus musculus. Put plainly: Toxicity by number of mice dead at dose 500 mg/kg out of 5 mice tested by oral administration route; Value represented as 0/5. The data set is classed as organism-based. Set-up: dose 500 mg/kg, route oral. As to conditions: in vivo.
In data set [12] the test system is Rattus norvegicus. Put plainly: Analgesic activity by oral administration of 200 mg/kg; Not effective. In kind it is functional, organism-based. More on the design: dose 200 mg/kg.

Activity calls are given as the source filed them. The rule behind the calls is not given here. Some results are limits rather than exact numbers.

In the data set on Rattus norvegicus [1], `CC(C)(C)c1nc(=O)c2ccccc2n1-c1ccccc1` yielded an inhibition in vivo at 50 mg/kg of 10%. On the same count and under the same terms, to `CCCCc1nc(=O)c2ccccc2n1-c1ccccc1` belongs 10%.

For `CC(C)n1c(-c2ccc(Br)cc2)nc(=O)c2ccccc21`, testing at 50 mg/kg with Rattus norvegicus [2] gave an inhibition in vivo of 50%. With `CC(C)c1nc(=O)c2ccc(Cl)cc2n1-c1ccccc1`, the ED30 in the data set on Rattus norvegicus [3] amounted to 80 mg/kg; in the data set on Rattus norvegicus [4], 21 mg/kg. The molecule also registered an inhibition in vivo at 50 mg/kg in the data set with Rattus norvegicus [5] of at least 51%. The molecule `O=c1nc(C2CC2)n(-c2ccc(F)cc2)c2ccccc12` displayed an inhibition in vivo at 50 mg/kg in the data set on Rattus norvegicus [5] of at least 51%. `COc1ccc2c(c1)c(=O)nc(-c1ccccc1)n2C(C)C` came in with an inhibition in vivo at 50 mg/kg in the data set with Rattus norvegicus [6] of 40%. On the same count and under the same terms, to `CC(C)n1c(-c2ccccc2)nc(=O)c2cc(F)ccc21` belongs 40%. Regarding `CC(C)C1NC(=O)c2ccccc2N1c1ccccc1` (stereo not drawn), 50 mg/kg produced 10% inhibition in vivo in the data set on Rattus norvegicus [1].

In turn, `CC(C)n1c(-c2ccccc2Cl)nc(=O)c2cc(F)ccc21` returned an inhibition in vivo at 50 mg/kg in the data set with Rattus norvegicus [7] of 30%.

`O=c1nc(C2CCC2)n(-c2ccccc2)c2ccccc12` yielded an inhibition in vivo at 50 mg/kg in the data set with Rattus norvegicus [7] of 30%. Regarding `CC(C)c1nc2ccccc2c(=O)n1-c1ccccc1`, 50 mg/kg produced 30% inhibition in vivo in the data set on Rattus norvegicus [7]. On to `CC(C)n1c(-c2ccccc2)nc(=O)c2c(Cl)cccc21`, for which the inhibition in vivo at 50 mg/kg in the data set with Rattus norvegicus [8] turned out to be 20%. In the data set on Rattus norvegicus [5], `CC(C)c1nc(=O)c2ccccc2n1-c1ccc(Cl)cc1` registered an inhibition in vivo at 50 mg/kg of at least 51%. Turning to `CCN(CC)Cc1nc(=O)c2ccccc2n1-c1ccccc1`, the inhibition in vivo at 50 mg/kg in the data set with Rattus norvegicus [1] was found to be 10%. The molecule `CC(C)c1nc(=O)c2cc(CC(=O)O)ccc2n1-c1ccccc1` gave an inhibition in vivo at 50 mg/kg with Rattus norvegicus [1] of 10%. In the data set with Rattus norvegicus [2], `CC(C)n1c(-c2ccccc2Cl)nc(=O)c2cc(Cl)ccc21` displayed an inhibition in vivo at 50 mg/kg of 50%. The molecule `Cc1ccc2c(=O)nc(-c3ccccc3)n(C(C)C)c2c1` had an inhibition in vivo at 50 mg/kg with Rattus norvegicus [1] of 10%. On the same count and under the same terms, to `Cc1ccc(-c2nc(=O)c3ccccc3n2C(C)C)cc1` belongs 10%.

Take `CC(C)n1c(-c2ccc([N+](=O)[O-])cc2)nc(=O)c2ccccc21`: the inhibition in vivo at 50 mg/kg in the data set with Rattus norvegicus [1] turned out to be 10%. The molecule `Cc1ccccc1-n1c(C(C)C)nc(=O)c2ccccc21` had an inhibition in vivo at 50 mg/kg in the data set on Rattus norvegicus [6] of 40%.

As to `CC(=O)c1ccc2c(c1)c(=O)nc(C(C)C)n2-c1ccccc1`, in the data set with Rattus norvegicus [1], at 50 mg/kg the inhibition in vivo was 10%. In turn, `CC(C)n1c(-c2ccc(F)cc2)nc(=O)c2ccccc21` registered an inhibition in vivo at 50 mg/kg with Rattus norvegicus [2] of 50%. Same read-out and setting: to `CC(C)n1c(-c2ccccc2Cl)nc(=O)c2ccccc21` belongs 50%.

As to `O=c1nc(C2CCC2)n(-c2ccc(Cl)cc2)c2ccccc12`, the inhibition in vivo at 50 mg/kg with Rattus norvegicus [7] is 30%.

In the data set with Rattus norvegicus [5], `COc1ccc2c(c1)c(=O)nc(C(C)C)n2-c1ccccc1` showed an inhibition in vivo at 50 mg/kg of at least 51%. `CC(C)c1nc(=O)c2ccccc2n1-c1ccc([N+](=O)[O-])cc1` showed an inhibition in vivo at 50 mg/kg in the data set on Rattus norvegicus [6] of 40%. In the data set on Rattus norvegicus [7], `CCOC(=O)C(C)c1nc(=O)c2ccccc2n1-c1ccccc1` (stereo not drawn) came in with an inhibition in vivo at 50 mg/kg of 30%. Regarding `CC(C)n1c(-c2ccc(N)cc2)nc(=O)c2ccccc21`, 50 mg/kg produced 10% inhibition in vivo in the data set on Rattus norvegicus [1].

`CC(C)n1c(-c2ccc(Cl)cc2)nc(=O)c2cc(Cl)ccc21` showed an inhibition in vivo at 50 mg/kg in the data set with Rattus norvegicus [1] of 10%. `O=c1nc(C2CC2)n(-c2ccccc2)c2ccccc12` gave an inhibition in vivo at 50 mg/kg in the data set on Rattus norvegicus [5] of at least 51%.

Turning to `CC(C)n1c(-c2ccc(F)cc2)nc(=O)c2cc(Cl)ccc21`, the ED30 was 100 mg/kg in the data set on Rattus norvegicus [3] and 18 mg/kg in the data set on Rattus norvegicus [4]. This molecule displayed an inhibition in vivo at 50 mg/kg with Rattus norvegicus [2] of 50%. Take `CC(C)n1c(-c2ccccc2)nc(=O)c2cc(Br)ccc21`: the inhibition in vivo at 50 mg/kg in the data set on Rattus norvegicus [7] stood at 30%. Regarding `O=c1nc(CCl)n(-c2cccc(C(F)(F)F)c2)c2ccccc12`, testing at 50 mg/kg with Rattus norvegicus [1] gave an inhibition in vivo of 10%. `CC(C)n1c(-c2ccccc2)nc(=O)c2ccc(Cl)cc21`: the No. of mice in the data set on Mus musculus [9] was 3. Also, in the data set on Mus musculus [10], the “Ulcer Index” value came out at 0.2. The molecule further came in with a Toxicity with Mus musculus [11] of 0. Further, the ED30 entry with Rattus norvegicus [12] is “inactive”. In the data set with Rattus norvegicus [4], this molecule had an ED30 of 16 mg/kg. This molecule came in with an inhibition in vivo at 50 mg/kg with Rattus norvegicus [2] of 50%. As for `CC(C)N1c2ccccc2C(=O)NC1c1ccccc1Cl` (stereo not drawn), in the data set with Rattus norvegicus [1], the inhibition in vivo at 50 mg/kg was 10%. Still for that read-out and setting: in the case of `O=c1nc(C(F)(F)F)n(-c2ccccc2)c2ccccc12` it was 10%.

For the molecule `O=c1nc(CCl)n(-c2ccccc2)c2ccccc12`, the inhibition in vivo at 50 mg/kg with Rattus norvegicus [1] was found to be 10%.

Consider `Cc1nc(=O)c2ccccc2n1-c1ccccc1`, for which testing at 50 mg/kg in the data set on Rattus norvegicus [1] gave an inhibition in vivo of 10%. In the data set on Rattus norvegicus [8], `CC(C)c1nc(=O)c2ccccc2n1-c1ccccc1C(=O)O` had an inhibition in vivo at 50 mg/kg of 20%.

By inhibition in vivo is commonly meant the change of the read-out against control, counted positive when it falls.
